# Tests used:
# [1] = test system: creatine amidinohydrolase from Alkaligenes sp. KS-85 (FERM BP-4487), the present enzyme; assay: Km determination by Lineweaver-Burk plot, creatine substrate; assay type: biochemical; conditions: pH 7.7, 37° C.
# Protocol: The enzyme activity forming […] yellow pigment in 1 minute under the following conditions is referred to as 1 U of the present enzyme.
# 6.63 g of creatine is dissolved in 500 ml of 50 mM buffer, pH 7.7.
# 1) 0.9 ml of the solution 1 is pre-incubated at 37° C. for 5 min.
# 2) 0.1 ml of an enzyme solution (adjusted in the range of approx. 1-2 U/ml) is mixed therewith and allowed to react at 37° C. for 10 min.
# 3) After 10 min. reaction, 2 ml of the solution 2 is mixed therewith.
# 4) After being mixed with the solution 2, the mixture is allowed to stand at 25° C. for 20 min., and the absorbance at 435 nm is determined (the OD sample).
# [2] = target: T1, conventional creatine amidinohydrolase (CRH-211, a product of Toyobo Co., Ltd.) (Pseudomonas putida, UniProt P38488); conditions: conventional enzyme; substrate creatine; cited from earlier work
# T1 construct: purchased Toyobo Co., Ltd. CRH-211
# T1 sequence (P38488 1-403): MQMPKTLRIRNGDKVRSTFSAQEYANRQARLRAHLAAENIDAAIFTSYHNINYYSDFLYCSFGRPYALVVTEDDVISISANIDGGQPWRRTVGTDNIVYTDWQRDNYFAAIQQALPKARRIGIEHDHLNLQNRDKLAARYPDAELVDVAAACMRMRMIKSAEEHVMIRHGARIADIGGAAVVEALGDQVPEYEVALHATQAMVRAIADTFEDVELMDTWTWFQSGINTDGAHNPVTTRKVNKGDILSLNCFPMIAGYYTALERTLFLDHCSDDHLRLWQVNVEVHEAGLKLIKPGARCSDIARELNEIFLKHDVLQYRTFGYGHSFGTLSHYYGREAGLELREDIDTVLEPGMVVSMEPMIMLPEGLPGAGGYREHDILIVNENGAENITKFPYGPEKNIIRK
compound,measurement,setting,value
CN(CC(=O)O)C(=N)N [creatine],Km,[1],13 mM
same,Km,[2],24 mM

# Source: patent publication US5451520A, “Creatine amidinohydrolase from alkaligenes sp. ks-85 ferm bp-4487” (Kikkoman Corporation, priority 1993, dated 1995)
